According to patent publication EP4011367A1, “COMPOUNDS FOR USE IN THE TREATMENT OF COVID-19” (priority 2020, dated 2022):
Read-outs that look alike come from different tables or passages of the source.

Target: T1, SARS-CoV-2 3CL-Pro (Severe acute respiratory syndrome coronavirus 2, UniProt P0DTD1)
T1 construct: SARS-CoV-2 main protease (3CL-Pro), also termed M-Pro
Assay: biochemical
Conditions: for inhibition at 20 µM: read-out: 3CL-Pro Inhibition [%] Primary Screen (20 µM)

How did the IC50 (read-out: IC50) turn out when `N#CSc1cc(SC#N)c(N)nc1N` [compound 66, 2,6-Diaminopyridine-3,5-diyl bis(thiocyanate)] was run?
Its IC50 is 410 nM.

With `CCN(CC)C(=S)SSC(=S)N(CC)CC` [compound 46, Tetraethylthioperoxydicarbonic diamide] as the compound, how does the inhibition at 20 µM read?
Its inhibition at 20 µM is 99.7%.

How did the inhibition at 20 µM turn out when `CCCCCCNC(=O)n1cc(F)c(=O)[nH]c1=O` [compound 55, 5-Fluoro-N-hexyl-2,4-dioxo-1,2,3,4-tetrahydropyrimidine-1-carboxamide] was run?
Its inhibition at 20 µM is 101%.

With `Cn1sc(=O)n(Cc2ccccc2)c1=O` [compound 19, 4-Benzyl-2-methyl-1,2,4-thiadiazolidine-3,5-dione] as the compound, how does the inhibition at 20 µM read?
The inhibition at 20 µM was 101%.

What about the IC50 (read-out: IC50) of the same compound?
The IC50 was 140 nM.

Which inhibition at 20 µM does the source give for `O=C1C(Cl)=C(Cl)C(=O)C(Cl)=C1Cl` [compound 43, 2,3,5,6-tetrachlorocyclohexa-2,5-diene-1,4-dione] here?
Its inhibition at 20 µM is 101%.

What about the IC50 (read-out: IC50) of the same compound?
Its IC50 is 20 nM.

Which inhibition at 20 µM does the source give for `C=CC(=O)c1ccc2ccccc2c1` [compound 33, 1-naphthalen-2-ylprop-2-en-1-one] here?
The inhibition at 20 µM was 94.5%.

What about the IC50 (read-out: IC50) of the same compound?
The IC50 was 1240 nM.

How did the inhibition at 20 µM turn out when `O=c1c2ccccc2[se]n1-c1ccccc1` [compound 10, 2-Phenyl-1,2-benzisoselenazol-3(2H)-one] was run?
Its inhibition at 20 µM is 100%.

With `CN=c1nc(-c2ccccc2)n(-c2ccccc2)s1` [compound 76, N-(2,3-Diphenyl-2,5-dihydro-1,2,4-thiadiazol-5-ylidene)-N-methylamine] as the compound, how does the IC50 (dose response, 8 concentrations, absence of DTT, 60 min pre-incubation at 37 °C, 15 µM substrate, 60 nM enzyme, read-out: IC50) read?
The IC50 was 980 nM.

What about the inhibition at 20 µM of the same compound?
Its inhibition at 20 µM is 99.8%.

For `CC(C)[C@H](NC(=O)[C@H](CCC(=O)O)NC(=O)[C@H](CC(=O)O)NC(=O)OCc1ccccc1)C(=O)N[C@@H](CC(=O)O)C(=O)CF` [compound 40, N-(Benzyloxycarbonyl)-L-aspartyl-L-glutamyl-L-valyl-L-aspartylfluoromethane], which IC50 is on record?
The IC50 was 10 nM.

What about the inhibition at 20 µM of the same compound?
Its inhibition at 20 µM is 100%.

With `CC(C)N(CCC(=O)c1ccc2ccccc2c1)Cc1ccccc1` [compound 71, 3-[benzyl(propan-2-yl)amino]-1-naphthalen-2-ylpropan-1-one] as the compound, how does the inhibition at 20 µM read?
Its inhibition at 20 µM is 75.7%.

What about the IC50 (read-out: IC50) of the same compound?
The IC50 was 580 nM.

With `CCC(=O)OCN1C(=O)C=CC1=O` [compound 36, Propionic acid 2,5-dioxo-2,5-dihydro-1H-pyrrol-1-ylmethyl ester] as the compound, how does the inhibition at 20 µM read?
Its inhibition at 20 µM is 100%.

What about the IC50 (read-out: IC50) of the same compound?
Its IC50 is 290 nM.

`Oc1c(I)cc(I)c(O)c1I` [compound 65, 2,4,6-Triiodoresorcine] was tested. Which inhibition at 20 µM did it give?
Its inhibition at 20 µM is 99.7%.

What about the IC50 (read-out: IC50) of the same compound?
The IC50 was 330 nM.

Which IC50 (read-out: IC50) does the source give for `Cc1ccc(-n2sc(=O)n(Cc3ccc(F)cc3)c2=O)cc1` [compound 53, 4-(4-Fluorobenzyl)-2-(4-methylphenyl)-1,2,4-thiadiazolidine-3,5-dione] here?
The IC50 was 150 nM.

With `Cc1ccccc1N(C)C(=O)c1ccc([S+]([O-])c2nccs2)c([N+](=O)[O-])c1` (centres unmarked) [compound 84, N-methyl-N-(2-methylphenyl)-3-nitro-4-(1,3-thiazol-2-ylsulfinyl)benzamide] as the compound, how does the inhibition at 20 µM read?
The inhibition at 20 µM was 96.7%.

What about the IC50 (read-out: IC50) of the same compound?
The IC50 was 1870 nM.

For `S=c1[nH]c2ccccc2s1` [compound 24, 3H-1,3-benzothiazole-2-thione], which inhibition at 20 µM is on record?
Its inhibition at 20 µM is 94%.

And the IC50 (read-out: IC50)?
Its IC50 is 1740 nM.

How did the inhibition at 20 µM turn out when `O=c1sn(-c2cccc3ccccc23)c(=O)n1Cc1ccccc1` [compound 49, 4-Benzyl-2-(1-naphthyl)-1,2,4-thiadiazolidine-3,5-dione] was run?
Its inhibition at 20 µM is 101%.
